From patent US20260166130A1, “PEPTIDE COMPOSITION HAVING ANGIOGENIC ACTIVITY, AND PHARMACEUTICAL COMPOSITION USING SAME AND COSMETIC COMPOSITION USING SAME” (LABTOMEDI CRO CO.,LTD., priority 2022, published 2026)
No end group written: not given here.

Legend:
[1] = tested on: HUVECs; assay: Blood vessel (tube) formation assay on Matrigel; assay type: cell-based, human; settings: 4 hours, vs. control
Procedure: HUVECs (20,000 cells/well) were seed on a layer of previously polymerized Matrigel and treated with or without the first peptide and the second peptide. The Matrigel culture was incubated at 37° C. After 4 hours, changes in cell morphology were captured using a phase-contrast microscope (×40). Each sample was assayed in duplicate, and independent experiments were repeated three times. *P<0.05, **P,0.01, ***P<0.001 (vs. control).
HUVECs (20,000 cells/well) were seeded on a layer of previously polymerized Matrigel, treated with the visfatin-derived peptides, and then incubated in a 5% CO2 incubator at 37° C. for 4 hours. Then, changes in the cell morphology were observed and photographed using a phase-contrast microscope at 40× magnification. Each sample was assayed in duplicate, and independent experiments were repeated three times. Angiogenesis was analyzed with ImageJ software using an angiogenesis analyzer (Bethesda, MD, USA).

[2] = tested on: HUVECs; assay: MTT cytotoxicity assay; assay type: cell-based, human; settings: 0.1 μM, 0.5 μM, 1.0 μM and 2.0 μM, incubated overnight
Procedure: HUVECS (PromoCell, Heidelberg, Germany) were cultured in endothelial basal medium 2 (EBM) supplemented with Supplement Mix (PromoCell) containing 2% fetal bovine serum (FBS). The Supplement Mix consisted of 5 ng/mL epidermal growth factor (EGF), 10 ng/ml basic fibroblast growth factor (bFGF), 20 ng/mL insulin-like growth factor (IGF), 0.5 ng/mL VEGF, 1 ug/mL ascorbic acid, 22.5 ug/mL heparin, and 0.2 ug/mL hydrocortisone. In some experiments, cells were cultured in EBM medium supplemented with Supplement Mix, and cells between passages 2 and 7 were used in all experiments. Cells were cultured for 24 hours in a 5% CO2 incubator at a 37° C.
HUVECs were seeded at a density of 10,000 cells in 96-well plates (SPL, Korea) and incubated overnight with EBM-2 medium containing visfatin (1,000 ng/ml) and each of the peptides with the highest affinity, obtained from docking simulation, in a 5% CO2 incubator at 37° C. MIT reagent (Sigma-Aldrich) was added to each well to a final concentration of 0.5 mg/ml. After 4 hours, the medium was removed, the formazan crystals formed in the cells were dissolved in dimethyl sulfoxide (DMSO), and the absorbance of the formazan solution was measured at a wavelength of 540 nm using a Synergy HTX Multi-Mode Reader (BIO-TEK, Vermont, USA). Each sample was assayed in triplicate. […]

Row | Substance | number of master junctions (tube formation) ([1]; second peptide except at the 2.0 μM concentration) | number of meshes (tube formation) ([1]; positive controls) | cell viability of HUVECs (cytotoxicity) [2]
1 | basic fibroblast growth factor [bFGF] | significantly increased | not significantly changed | –
2 | LEYKLHDFGY [Peptide 1, LEYKLHDFGY] | – | – | did not affect the viability of the cells
3 | EYKLHDFGYRGV [Peptide 2, EYKLHDFGYRGV] | – | – | did not affect the viability of the cells
